Laboratory results published in paper PMC7156724, “Potent BRD4 inhibitor suppresses cancer cell-macrophage interaction” (Nature Communications, 2020).
Values joined by “and” are separate entries in the source; they are usually repeats but may differ in a detail not shown here. Equal values may be shown once.

Assays:
TAMs = test: Ki67 FACS of TAMs induced by CSF1; format: cell-based, mouse
Procedure: Flow cytometry analyses were performed using antibodies listed in Supplementary Table 8. For cell surface markers, mouse TAM suspensions were stained with mouse APC-CD45, FITC-CD11b, PE-F4/80 or APC-F4/80, CD68, and PE-CD206 antibodies for 15 min on ice. For Ki67 staining, cells were fixed in 4% paraformaldehyde and stained with FITC-Ki67. Isotype matching antibody served as the negative control. Flow cytometry was performed on a FACSCalibur (BD Biosciences). Data were analyzed with BD CellQuest Pro software version 5.1.
Supplementary Figure 14. NHWD-870 and BRD4 deletion partially inhibite d prolifera tion of TAMs […]
(a) CD45+CD11b+F4/80 + TAMs in the orthotopic B16 melanoma model were harvested from tumors. Shown are representative FACS plots of TAMs. (b,c) Representative FACS plots (b) and quantification (c) of Ki67+ macrophages treated with 50 ng/ml CSF1, and DMSO or 25 or 50 nM NHWD-870. […]
TAMs induced by CSF1. (a-c) CD11b+F4/80+ macrophages in the orthotopic B16F10 melanoma model were harvested from tumor tissues. Shown are representative CD45+, CD11b+, F4/80+ FACS plots (a) and quantification of the percentage of Ki67+ cells after treatment with DMSO or NHWD-870 dependent on CSF1 stimulation (b,c). (d-g) FACS plots and quantification of the percentage of Ki67+ cells after CRISPR/Cas9-mediated BRD4 knockout (d,e) and c-MYC knockout (f,g) in CD11b+F4/80+ macrophages. CSF1 is added at the indicated concentration.
Please also see response to comment # 4 about our 2D assays, in which we used colony number to quantify the number of TAMs.
NHWD-870 treatment and the main differences are colony size.
6. For comparison purposes, it would be a good idea to compare the direct effect of NHWD-870 on in […]
marrow derived macrophage proliferation and gene expression in vitro). […]

BRD4 (BD1+BD2) = target: T1, BRD4 (BD1+BD2) (Homo sapiens, UniProt O60885); test: BRD4 (BD1+BD2) TR-FRET binding assay; details: for Biochemical activity against BRD4 (BD1 + BD2): Fig.1d, replicates
T1 construct: purchased BPS 32612
Source text: 2. BRD4 binding assay. The inhibitory effects of NHWD-530, NHWD-540, NHWD- […]
(BPS, Cat # 32612) per manufacturer’s instructions. […]

CSF1 mRNA = test: RT-qPCR of CSF1 mRNA in mouse tumor cells (ID8, B16); format: cell-based; details: ID8, 50 nM, 48 h
H526 cells = test: MTT cell growth assay, H526; format: cell-based, human; details: 5 days
Procedure: (§1) Fig. 2 NHWD-870 inhibited BRD4 phosphorylation and c-MYC expression, and suppressed cell growth. a Representative western blot analysis of p-BRD4 (s484/488), BRD4, c-MYC, and GAPDH after treatment of MDA-MB231, SUM159, A2780 ES-2, and H526 cells with JQ-1 or NHWD-870 at the indicated concentrations for 24 h. GAPDH served as the loading control. Selected from three independent experiments. b MTT assays of H526, A2780, ES-2, and MDA-MB231 cells treated with JQ-1 or NHWD-870 at the indicated concentrations for 5 days. Data are presented as mean ± SEM from three independent experiments. c, d Clonogenic assays of H526, A2780, ES-2 and MDA-MB231 cells treated with 250 nM JQ-1 or NHWD-870 for 5 days. Shown are representative images (c) and quantification of colonies (d). […] Shown are representative images (e) and quantification of relative colony sizes (f). Scale bar, 50 μm. Data are presented as mean ± SEM from five independent experiments. p values were calculated using two-tailed, unpaired t tests in this figure. **p < 0.01; ***p < 0.001. Source data are provided as a Source Data file.
37℃, 5% CO2. […]

ES-2 cells = test: Clonogenic (colony formation) assay, ES-2; format: cell-based, human; details: ES-2, 250 nM, 5 days
Procedure: as §1, with “file. […]” for “file.”
5. Colony formation assay. Cells were seeded in 6-well plates at 3,000 cells/well […]
every week. […] Colony numbers were calculated with imageJ version

With `Cc1nnn(C)c1-c1cnc2c3c4cnn(C)c4ccc3n([C@H](c3ccccc3)C3CCOCC3)c2c1` [NHWD-870] the “decrease of TAMs proliferation (Ki67 FACS)” value (TAMs; TAMs induced by CSF1) was ~ 50%, the “fold decrease of CSF1 induced growth of macrophages” value (TAMs; direct treatment of TAMs in 2D growth assays) was less than 2 fold and the “Biochemical activity against BRD4 (BD1 + BD2)” value (shortened to “Biochemical activity”) (BRD4 (BD1+BD2); concentration(nM) 0.0021442) was 0.8628 and 1.4579. For the same molecule, the “Biochemical activity” value (BRD4 (BD1+BD2); concentration(nM) 0.061236) was 16.5754 and 12.5588, the “Biochemical activity” value (BRD4 (BD1+BD2); concentration(nM) 0.103) was 20.2946 and 25.6828 and the “Biochemical activity” value (BRD4 (BD1+BD2); concentration(nM) 0.59176) was 60.3038 and 63.4692. For the same molecule, the “Biochemical activity” value (BRD4 (BD1+BD2); concentration(nM) 1.19382) was 79.3053 and 83.6424, the “Biochemical activity” value (BRD4 (BD1+BD2); concentration(nM) 1.79588) was 95.9066 and 95.1156 and the “Biochemical activity” value (BRD4 (BD1+BD2); concentration(nM) 2.39794) was 100.74 and 99.5542. For the same molecule, the “Biochemical activity” value (BRD4 (BD1+BD2); concentration(nM) 3) was 101.339 and 101.804, the IC50 (BRD4 (BD1+BD2); average IC50, nM, read-out: IC50, biochemical activity against BRD4 (BD1 + BD2)) was 2.7 nM and 2.72 nM and the “relative CSF1 mRNA level” value (CSF1 mRNA) was 0.0037 and 0.00425 and 0.0051. The “MTT assay, relative cell number” value (H526 cells; H526, 0.1 nM) was 0.977 and 0.969 and 0.948, the “MTT assay, relative cell number” value (H526 cells; H526, 1 nM) was 0.658 and 0.633 and 0.625 and the “MTT assay, relative cell number” value (H526 cells; H526, 10 nM) was 0.268 and 0.226 and 0.235. The “MTT assay, relative cell number” value (H526 cells; H526, 100 nM) was 0.103 and 0.115 and 0.127, the “MTT assay, relative cell number” value (H526 cells; H526, 500 nM) was 0 and the “MTT assay, relative cell number” value (H526 cells; H526, 1000 nM) was 0. For the same molecule, the “MTT assay, relative cell number” value (H526 cells; H526, 5000 nM) was 0, the “MTT assay, relative cell number” value (H526 cells; H526, 10000 nM) was 0 and the “Clone Number (clonogenic assay)” value (ES-2 cells) was 146 and 155 and 103 and 98 and 133.
